# Results taken from ChEMBL document CHEMBL1137836, “Identification of a potent and rapidly reversible inhibitor of the 20S-proteasome” (Bioorg Med Chem Lett, 2004).
# Tested on: Proteasome
# Experiment: Concentration required for reversal inhibition of 20S-proteasome
# Assay type: subcellular
row,Compound,IC50
1,CC[C@H](NC(=O)[C@H](CC1CCCCC1)N1CC[C@](NC(=O)OCc2ccccc2)(C(C)C)C1=O)B(O)O,30 nM
2,CC[C@H](NC(=O)[C@H](Cc1ccccc1)N1CC[C@](NC(=O)OCc2ccccc2)(C(C)C)C1=O)B(O)O,30 nM
3,Cc1cccc(S(=O)(=O)N[C@]2(C(C)C)CCN([C@@H](CC3CCCCC3)C(=O)N[C@H](B(O)O)C(C)C)C2=O)c1,28 nM
4,CC[C@H](NC(=O)[C@H](CC1CCCCC1)N1CC[C@](NS(=O)(=O)c2cccc(C)c2)(C(C)C)C1=O)B(O)O,30 nM

# Other lines, results leading:
row,IC50,Compound
1,1000 nM,CC[C@H](NC(=O)[C@H](C)N1CC[C@](NC(=O)OCc2ccccc2)(C(C)C)C1=O)B(O)O
2,8 nM,Cc1cccc(S(=O)(=O)N[C@]2(C(C)C)CCN([C@@H](CC3CCCCC3)C(=O)N[C@@H](CC(C)C)B(O)O)C2=O)c1
